Measurements taken from patent US20140113877A1, “NOVEL 3,4,4A,10B-TETRAHYDRO-1H-THIOPYRANO[4,3-C] ISOQUINOLINE COMPOUNDS” (Takeda GmbH, priority 2011, published 2014).

Key:
[1] = target: T1, PDE4B1 (Homo sapiens, UniProt Q07343); assay: Inhibition of PDE4B1 activity (SPA, [3H]cAMP); format: biochemical; conditions: recombinant PDE4B1, 0.5 μM cAMP; binned: below 8 / between 8 and 9; read-out: PDE4B1 inhibitory values measured as −logIC50 (converted)
T1 construct: made in house; host or cells: SF21 insect cells (baculovirus; virus prepared in SF9 cells)
T1 sequence (Q07343 whole entry): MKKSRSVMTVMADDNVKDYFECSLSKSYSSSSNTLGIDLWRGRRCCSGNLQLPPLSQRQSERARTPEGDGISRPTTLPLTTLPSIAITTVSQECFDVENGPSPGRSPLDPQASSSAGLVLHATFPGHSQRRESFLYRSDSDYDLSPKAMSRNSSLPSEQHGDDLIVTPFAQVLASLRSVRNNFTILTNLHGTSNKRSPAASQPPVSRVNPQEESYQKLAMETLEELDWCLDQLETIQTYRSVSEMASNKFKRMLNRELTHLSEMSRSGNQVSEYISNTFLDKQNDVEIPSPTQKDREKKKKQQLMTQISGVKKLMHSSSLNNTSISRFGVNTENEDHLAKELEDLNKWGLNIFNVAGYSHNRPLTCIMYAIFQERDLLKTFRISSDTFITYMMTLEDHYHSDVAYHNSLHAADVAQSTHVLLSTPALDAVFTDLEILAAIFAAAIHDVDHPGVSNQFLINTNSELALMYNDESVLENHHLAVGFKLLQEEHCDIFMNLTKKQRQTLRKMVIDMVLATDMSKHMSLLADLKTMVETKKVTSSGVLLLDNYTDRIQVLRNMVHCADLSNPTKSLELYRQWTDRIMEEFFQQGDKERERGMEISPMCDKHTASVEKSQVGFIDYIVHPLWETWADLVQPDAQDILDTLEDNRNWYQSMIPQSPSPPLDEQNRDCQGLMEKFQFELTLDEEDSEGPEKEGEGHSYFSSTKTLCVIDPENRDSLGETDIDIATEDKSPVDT
Experimental: The PDE4B1 (GB no. L20966) was a gift of Prof. M. Conti (Stanford University, USA). It was amplified from the original plasmid (pCMV5) via PCR with primers Rb18 (5′-[…]-3′) and Rb10 (5′-[…]-3′) and cloned into the pCR-Bac vector (Invitrogen, Groningen, NL).
The recombinant baculovirus was prepared by means of homologous recombination in SF9 insect cells. The expression plasmids were cotransfected with Baculo-Gold DNA (Pharmingen, Hamburg) using a standard protocol (Pharmingen, Hamburg). Wt virus-free recombinant virus supernatants were selected using plaque assay methods. After that, high-titre virus supernatants were prepared by amplifying 3 times. PDE4B1 was expressed in SF21 cells by infecting 2×10^6 cells/ml with an MOI (multiplicity of infection) between 1 and 10 in the serum-free SF900 medium (GIBCO Life Technologies, Karlsruhe, Germany). The cells were cultured at 28° C. for 48-72 hours, after which they were pelleted for 5-10 min at 1000×g and 4° C.
The SF21 insect cells were resuspended, at a concentration of approx. 10^7 cells/ml, in ice-cold (4° C.) homogenization buffer (20 mM Tris, pH 8.2, containing the following additions: 140 mM NaCl, 3.8 mM KCl, 1 mM EGTA, 1 mM MgCl2, 10 mM β-mercaptoethanol, 2 mM benzamidine, 0.4 mM Pefablock, 10 μM leupeptin, 10 μM pepstatin A, 5 μM trypsin inhibitor) and disrupted by ultrasonication. The homogenate was then centrifuged for 10 min at 1000×g and the supernatant was stored at −80° C. until subsequent use (see below). The protein content was determined by the Bradford method (BioRad, Munich) using BSA (Bovine serum albumin) as the standard.
PDE4B1 activities were measured in a 96-well platform using SPA (scintillation proximity assay) yttrium silicate beads (RPNQ1050 from GE Healthcare). In a first step the PDE activity operated hydrolysis of either [^3H] cAMP (substrate) into [^3H] 5′AMP. In a second step substrate and product were distinguished following addition of SPA yttrium silicate beads. Indeed, in the presence of zinc sulphate the linear [^3H] […] Close proximity of bound [^3H] […] The test volume was 100 μl and finally contained 20 mM Tris buffer (pH 7.4), 0.1 mg/ml of BSA, 5 mM Mg^2+, 0.5 μM cAMP (including about 50,000 cpm of [3H]cAMP) as substrate, 1 μl of the respective substance dilution in DMSO and sufficient recombinant PDE (1000×g supernatant, see above) to ensure that 10-20% of the cAMP was converted under the said experimental conditions. […] After a preincubation of 5 min at 37° C., the reaction was commenced by adding the substrate (cAMP) and the assays were incubated for a further 15 min. Reactions were terminated by adding SPA beads (50 μl). In agreement with the manufacturer's instructions, the SPA beads had previously been resuspended in water, but were then diluted 1:3 (v/v) in water. This diluted solution further contained 3 mM IBMX (isobutylmethylxanthine) to ensure a complete block of PDE activity. Once the beads were sedimented (>30 min), the MTP's (microtiter plate) were analyzed in commercially available luminescence detection devices. The corresponding IC50 values of the compounds for inhibition of PDE4B1 activity were determined from the concentration-effect curves by means of non-linear regression.
For the following compounds PDE4B1 inhibitory values [measured as −logIC50 (mol/l)] below 8 and between 8 and 9 have been determined. The numbers of the compounds correspond to the numbers of the examples.

[2] = target: T2, human PDE5 (Homo sapiens, UniProt O76074); assay: Inhibition of PDE5 activity (SPA, [3H]cGMP, platelet lysate); format: biochemical; conditions: 0.5 μM cGMP, binned: below 8 / between 8 and 9, read-out: PDE5 inhibitory values measured as −logIC50 (converted)
T2 construct: from tissue; host or cells: human platelets from fresh donor blood (platelet lysate)
Experimental: As a source for human PDE5, platelets were used. For that purpose, 150 ml fresh blood from human donors anticoagulated with citrate [final concentration 0.3% (w/v)] was centrifuged at 200 g for 10 min to obtain the so-called platelet-rich-plasma (PRP) as a supernatant. 1/10 volume of ACD solution (85 mM Na3-citrate, 111 mM D-glucose, 71 mM citric acid, pH 4.4) was added to 9/10 volume of PRP. After centrifugation (1,400 g, 10 min) the cell pellet was resuspended in 3 ml homogenization buffer (NaCl 140 mM, KCl 3.8 mM, EGTA (ethylene glycol tetraacetic acid) 1 mM, MgCl2 1 mM, Tris-HCl 20 mM, beta-mercaptoethanol 1 mM, pH 8.2) plus protease-inhibitor mix resulting in final concentrations of 0.5 mM Pefablock (Roche), 10 μM Leupeptin, 5 μM Trypsine inhibitor, 2 mM Benzamidin and 10 μM Pepstatin A. The suspension was sonicated and thereafter centrifuged for 15 min at 10,000 g. The resulting supernatant (platelet lysate) was used for enzymatic assays.
PDE5 activities were measured in a 96-well platform using SPA (scintillation proximity assay) yttrium silicate beads (RPNQ1050 from GE Healthcare). In a first step the PDE activity operated hydrolysis of either [^3H] cGMP (substrate) into [^3H] 5′GMP. In a second step substrate and product were distinguished following addition of SPA yttrium silicate beads. Indeed, in the presence of zinc sulphate the linear [^3H] […] Close proximity of bound [^3H] […] The test volume was 100 μl and contained 20 mM Tris buffer (pH 7.4), 0.1 mg of BSA (bovine serum albumin)/ml, 5 mM Mg^2+, 1 μM motapizone (PDE3 Inhibitor), 10 nM PDE2 inhibitor 2-(3,4-dimethoxybenzyl)-7-[(1R,2R)-2-hydroxy-1-(2-phenylethyl)propyl]-5-methylimidazo[5,1-f][1,2,4]triazin-4(3H)-one, 0.5 μM cGMP (cyclic guanosine monophosphate) (including about 50,000 cpm of [3H]cGMP as a tracer) (substrate), 1 μl of the respective compound dilution in dimethylsulfoxide (DMSO) and sufficient PDE5-containing platelet lysat (10,000×g supernatant, see above) to ensure that 10-20% of the cGMP was converted under the said experimental conditions. […] After a preincubation of 5 min at 37° C., the reaction was commenced by adding the substrate (cGMP) and the assay was incubated for a further 15 min. The reaction was terminated by adding SPA beads (50 μl). In agreement with the manufacturer's instructions, the SPA beads had previously been resuspended in water, but were then diluted 1:3 (v/v) in water. This diluted solution also contained 3 mM 8-methoxymethyl-3-isobutyl-1-methylxanthine (IBMX) to ensure a complete block of PDE activity. Once the beads were sedimented (>30 min), the MTP's were analyzed in commercially available luminescence detection devices. The corresponding IC50 values of the compounds for inhibition of PDE activity were determined from the concentration-effect curves by means of non-linear regression.
For the following compounds PDE5 inhibitory values [measured as −logIC50 (mol/l)] below 8 and between 8 and 9 have been determined. The numbers of the compounds correspond to the numbers of the examples.

Structure (SMILES) | IC50 [1] | IC50 [2]
CCOc1cc2c(cc1OC)C(c1ccc(C(=O)N3CCC(n4c(=O)c5sc(-c6ccc(F)cc6)cc5n(Cc5ccc(OC)c(F)c5)c4=O)CC3)cc1)=N[C@@H]1CCSC[C@H]21 [Example 13, 3-[1-({4-[(4aR,10bR)-9-ethoxy-8-methoxy-3,4,4a,10b-tetrahydro-1H-thiopyrano[4,3-c]isoquinolin-6-yl]phenyl}carbonyl)piperidin-4-yl]-1-(3-fluoro-4-methoxybenzyl)-6-(4-fluorophenyl)thieno[3,2-d]pyrimidine-2,4(1H,3H)-dione] | 1 to 10 nM | 1 to 10 nM
CCOc1cc2c(cc1OC)C(c1ccc(C(=O)N3CCC(n4c(=O)c5sc(-c6ccccc6F)cc5n(Cc5ccc(OC)c(F)c5)c4=O)CC3)cc1)=N[C@@H]1CCSC[C@H]21 [Example 12, 3-[1-({4-[(4aR,10bR)-9-ethoxy-8-methoxy-3,4,4a,10b-tetrahydro-1H-thiopyrano[4,3-c]isoquinolin-6-yl]phenyl}carbonyl)piperidin-4-yl]-1-(3-fluoro-4-methoxybenzyl)-6-(2-fluorophenyl)thieno[3,2-d]pyrimidine-2,4(1H,3H)-dione] | 1 to 10 nM | 1 to 10 nM
CCOc1cc2c(cc1OC)C(c1ccc(C(=O)N3CCC(n4c(=O)c5sc(-c6ccccc6)cc5n(Cc5cc(F)c(OC)c(F)c5)c4=O)CC3)cc1)=N[C@@H]1CCSC[C@H]21 [Example 3, 1-(3,5-difluoro-4-methoxybenzyl)-3-[1-({4-[(4aR,10bR)-9-ethoxy-8-methoxy-3,4,4a,10b-tetrahydro-1H-thiopyrano[4,3-c]isoquinolin-6-yl]phenyl}carbonyl)piperidin-4-yl]-6-phenylthieno[3,2-d]pyrimidine-2,4(1H,3H)-dione] | 1 to 10 nM | 1 to 10 nM
CCOc1cc2c(cc1OC)C(c1ccc(C(=O)N3CCC(n4c(=O)c5sc(-c6ccc(F)cc6OC)cc5n(Cc5cc(F)c(OC)c(F)c5)c4=O)CC3)cc1)=N[C@@H]1CCSC[C@H]21 [Example 14, 1-(3,5-difluoro-4-methoxybenzyl)-3-[1-({4-[(4aR,10bR)-9-ethoxy-8-methoxy-3,4,4a,10b-tetrahydro-1H-thiopyrano[4,3-c]isoquinolin-6-yl]phenyl}carbonyl)piperidin-4-yl]-6-(4-fluoro-2-methoxyphenyl)thieno[3,2-d]pyrimidine-2,4(1H,3H)-dione] | > 10 nM | 1 to 10 nM
CCOc1cc2c(cc1OC)C(c1ccc(C(=O)N3CCC(n4c(=O)c5sc(-c6ccc(F)cc6OC)cc5n(Cc5ccc(OC)c(F)c5F)c4=O)CC3)cc1)=N[C@@H]1CCSC[C@H]21 [Example 15, 1-(2,3-difluoro-4-methoxybenzyl)-3-[1-({4-[(4aR,10bR)-9-ethoxy-8-methoxy-3,4,4a,10b-tetrahydro-1H-thiopyrano[4,3-c]isoquinolin-6-yl]phenyl}carbonyl)piperidin-4-yl]-6-(4-fluoro-2-methoxyphenyl)thieno[3,2-d]pyrimidine-2,4(1H,3H)-dione] | 1 to 10 nM | > 10 nM
CCOc1cc2c(cc1OC)C(c1ccc(C(=O)N3CCC(n4c(=O)c5sc(-c6ccc(F)cc6OC)cc5n(Cc5ccccc5)c4=O)CC3)cc1)=N[C@@H]1CCSC[C@H]21 [Example 17, 1-benzyl-3-[1-({4-[(4aR,10bR)-9-ethoxy-8-methoxy-3,4,4a,10b-tetrahydro-1H-thiopyrano[4,3-c]isoquinolin-6-yl]phenyl}carbonyl)piperidin-4-yl]-6-(4-fluoro-2-methoxyphenyl)thieno[3,2-d]pyrimidine-2,4(1H,3H)-dione] | 1 to 10 nM | > 10 nM
CCOc1cc2c(cc1OC)C(c1ccc(C(=O)N3CCC(n4c(=O)c5sc(-c6ccccc6)cc5n(Cc5ccc(OC)c(F)c5)c4=O)CC3)cc1)=N[C@@H]1CCSC[C@H]21 [Example 1, 3-(1-{4-[(4aR,10bR)-9-ethoxy-8-methoxy-3,4,4a,10b-tetrahydro-1H-thiopyrano[4,3-c]isoquinolin-6-yl]benzoyl}piperidin-4-yl)-1-(3-fluoro-4-methoxybenzyl)-6-phenylthieno[3,2-d]pyrimidine-2,4(1H,3H)-dione] | 1 to 10 nM | 1 to 10 nM
CCOc1cc2c(cc1OC)C(c1ccc(C(=O)N3CCC(n4c(=O)c5sc(-c6ccccc6)cc5n(Cc5ccccc5)c4=O)CC3)cc1)=N[C@@H]1CCSC[C@H]21 [Example 7, 1-benzyl-3-[1-({4-[(4aR,10bR)-9-ethoxy-8-methoxy-3,4,4a,10b-tetrahydro-1H-thiopyrano[4,3-c]isoquinolin-6-yl]phenyl}carbonyl)piperidin-4-yl]-6-phenylthieno[3,2-d]pyrimidine-2,4(1H,3H)-dione] | 1 to 10 nM | 1 to 10 nM
CCOc1cc2c(cc1OC)C(c1ccc(C(=O)N3CCC(n4c(=O)c5sc(-c6ccccc6)cc5n(Cc5ccc(C)c(F)c5)c4=O)CC3)cc1)=N[C@@H]1CCSC[C@H]21 [Example 6, 3-[1-({4-[(4aR,10bR)-9-ethoxy-8-methoxy-3,4,4a,10b-tetrahydro-1H-thiopyrano[4,3-c]isoquinolin-6-yl]phenyl}carbonyl)piperidin-4-yl]-1-(3-fluoro-4-methylbenzyl)-6-phenylthieno[3,2-d]pyrimidine-2,4(1H,3H)-dione] | > 10 nM | 1 to 10 nM
